# Residue numbers refer to the chain shown, from its start.
# What was measured:
# [1] = test system: E. coli whole cell lysate; assay: CXMS analysis of cross-linked E. coli whole cell lysate; details: 10 mg/mL lysate, 40 mM crosslinker, RT 2 h
# Description: To determine whether NHSF could be used in complex biological samples to generate novel cross-links for MS identification, we applied BS2G and NHSF on E. coli whole cell lysate.
# Preparation of E. coli cell lysate. DH10β bacterial cells were cultured overnight. After cells were harvested by centrifugation, cell pellets were washed twice with PBS. Cells were resuspended with lysis buffer (50 mM Hepes, pH 8.3, 150 mM NaCl, 1×EDTA-free Complete Protease Inhibitor Cocktail) and incubate with lysozyme (1 mg/mL), DNase I (0.5 mg/mL) and RNase A (0.1 mg/mL) at 4° C. for 30 min. Cell lysates were sonicated for 3 min with 30% energy and filtrated with Amicon-0.5 ml 10K unit for 3 times.
# Peptide and protein cross-linking. […] E. coli cell lysate: 20 uL lysate (10 mg/mL protein, 50 mM Hepes, pH 8.3, 150 mM NaCl) was incubate with 40 mM BS2G or 40 mM NHSF at RT for 2 h. BS2G cross-linking reaction was terminated at RT by adding 100 mM ammonium bicarbonate and incubating for 20 min. NHSF cross-linking reaction was terminated at RT by adding 100 mM DTT and incubating for 20 min.
# Protein digestion. All protein samples were precipitated by six volumes of acetone at −20° C. for 30 min. Precipitated proteins were dried in air and resuspended in 8 M urea, 100 mM Tris, pH 8.5. […]
# [2] = biological target: Bovine Serum Albumin (BSA) (Bos taurus, UniProt P02769); assay: CXMS analysis of cross-linked BSA
# Description: NHSF Cross-links Bovine Serum Albumin.
# BSA: In a 20 μL reaction, 10 μM BSA (69 kDa, in PBS buffer, pH 7.5) was cross-linked at RT for 1 h with 1 mM BS2G or 1 mM NHSF, which corresponded to a 1:100 protein:cross-linker molar ratio. BS2G cross-linking reaction was terminated at RT by adding 20 mM ammonium bicarbonate and incubating for 20 min. NHSF cross-linking reaction was terminated at RT by adding 10 mM Dithiothreitol (DTT) and incubating for 20 min.
# Protein digestion. All protein samples were precipitated by six volumes of acetone at −20° C. for 30 min. Precipitated proteins were dried in air and resuspended in 8 M urea, 100 mM Tris, pH 8.5. After reduction with 2 mM DTT for 20 min and alkylation with 10 mM iodoacetamide for 15 min in the dark, samples were diluted to 2 M urea with 100 mM Tris, pH 8.5, and digested with trypsin (at 50:1 protein:enzyme ratio) at 37° C. for 16 h. Digestion was stopped by adding formic acid to 5% final concentration, and digested peptides were desalted with stagetip.
# Tandem mass spectrometric analysis. Mass spectrometry experiments were performed using an Orbitrap Fusion Lumos™ instrument (ThermoFisher, San Jose, CA) coupled with an UltiMate™ 3000 nano LC. Mobile phase A and B were water and acetonitrile, respectively, with 0.1% formic acid. […]
# peptide 7KR (Ac-AAAKAAR) = assay: Reaction of crosslinker with model peptide 7KR (mass spectra); assay type: biochemical; details: 10 μM peptide, 10 μM crosslinker, PBS pH 7.5, RT 1 h
# Description: Reaction of NHSF with Model Peptide. We first tested the reactivity of NHSF with a model peptide (Ac-AAAKAAR (SEQ ID NO:1), 7KR) with a single Lys as a reactive group, and compared its reactivity towards BS2G (bis(sulfosuccinimidyl) 2,2,4,4-glutarate-d4, FIG. 2A), a commercial NHS-based homo-bifunctional crosslinker of similar length. […] Owing to the low reactivity of sulfonyl-fluorides and the lack of reactive groups in 7KR, additional reaction was not observed with the Arg sidechain.
# Peptide and protein cross-linking.
# [3] = biological target: T1, Glutathione S-Transferase (GST) (Escherichia coli, UniProt P0A9D2); assay: Cross-linking of GST (SDS-PAGE, Western blot, CXMS)
# T1 sequence (P0A9D2 1-201): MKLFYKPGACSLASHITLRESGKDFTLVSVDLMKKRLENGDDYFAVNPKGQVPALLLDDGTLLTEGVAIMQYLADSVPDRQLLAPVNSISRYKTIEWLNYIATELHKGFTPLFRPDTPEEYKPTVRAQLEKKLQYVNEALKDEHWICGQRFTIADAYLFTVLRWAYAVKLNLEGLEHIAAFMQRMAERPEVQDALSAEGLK
# Description: NHSF Cross-links Glutathione S-Transferase. To further validate the cross-linking specificity of NHSF, the homodimeric Glutathione S-Transferase (GST) was cross-linked by NHSF or BS2G.
# Peptide and protein cross-linking. […] BS2G cross-linking reaction was terminated at RT by adding 20 mM ammonium bicarbonate and incubating for 20 min. NHSF cross-linking reaction was terminated at RT by adding 10 mM Dithiothreitol (DTT) and incubating for 20 min. GST: In a 20 μL reaction, 10 μM GST (23 kDa, in PBS buffer, pH 7.5) was cross-linked at RT for 1 h with 0.5 mM BS2G or 0.5 mM NHSF, which corresponded to a 1:50 protein:cross-linker molar ratio. The cross-linking reactions were similarly terminated as described in the BSA section above.
# [4] = test system: SSB-19(3×) or SSB-ATC(4×) complex; assay: SSB protein-DNA oligo crosslinking (denaturing TBE-urea gel shift); assay type: biochemical; details: 19(3×) or ATC(4×) DNA, 1 mM crosslinker, UV 365 nm 15 min
# HEK293T cells = assay: Toxicity on incubation with HEK293T cells; assay type: cell-based, mammalian; details: 0.6 mM HoQM incubated for different time duration (4 or 8 hr)
# WT 14-3-3 protein = biological target: T2, WT 14-3-3 protein (Homo sapiens, UniProt P63104); assay: Tandem MS (CXMS) of crosslinked 14-3-3; assay type: biochemical
# T2 sequence (P63104 1-245): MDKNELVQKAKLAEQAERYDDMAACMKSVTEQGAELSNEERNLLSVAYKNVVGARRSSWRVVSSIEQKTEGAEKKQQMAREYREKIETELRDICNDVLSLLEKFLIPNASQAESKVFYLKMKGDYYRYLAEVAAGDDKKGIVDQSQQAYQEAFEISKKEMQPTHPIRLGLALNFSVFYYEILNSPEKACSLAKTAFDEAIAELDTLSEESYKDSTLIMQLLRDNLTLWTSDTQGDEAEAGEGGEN
# Description: Tryptic digestion of cross-linked proteins. Protein digestion was carried out by following a procedure described previously.^[28] Briefly, after crosslinking protein samples were quenched by adding 100 mM Tris-HCI, pH 7.4 for 15 min. […] Protein was collected by centrifugation for 10 min at 15,000 g. […] Digestion was terminated by adding formic acid at final concentration 5% (v/v). Digested peptides were desalted with C18 ZipTip, and eluted peptides were dried down with SpeedVac.
# Mass spectrometry. Digested peptides were dissolved in 200 mM NH4HCO3 after clean-up and then subject to tandem mass spectrometry on a Thermo Q-Exactive Orbitrap. Crosslinked peptides. Peptides were separated by nano-LC Ultimate 3000 high-performance liquid chromatography system using an Acclaim PepMap C18 column (Thermo Scientific). […] The Q-Exactive mass spectrometer was operated in data-dependent mode with one full MS scan at R=70,000 (m/z=200) followed by ten HCD MS/MS scans at R=17,500 (m/z=200) using a stepped normalized collision energy of 28, 30, 35 eV. The AGC targets for the MS1 and MS2 scans were 3×10^6 and 1×10^5, respectively, and the maximum injection time for MS1 was 250 ms, and for MS2 was 200 ms. Precursors of the +1, +6 or above, or unassigned charge states were rejected; exclusion of isotopes was enabled; dynamic exclusion was set to 30 s. The crosslinking mass spectra were analyzed with pLink 2.3.^[29]
# [5] = biological target: T3, 14-3-3 WT in E. coli cell lysate (Homo sapiens, UniProt P63104); assay: Crosslinking of 14-3-3 WT in E. coli cell lysate (Western blot); assay type: biochemical
# T3 sequence (P63104 1-245): T2 sequence (P63104 1-245)
# Description: (§1) Following crosslinking, NHQM results in a short and rigid linkage, which requires close contact of target residue pairs for effective crosslinking. We therefore tested whether this feature of NHQM could be used to readily determine protein dimerization in vitro and in cell lysates. It has been reported that three mutations (^12LAE^14→^12QQR^14) of 14-3-3 disrupt the dimer interface to form a monomer, leading to a distinct function from WT 14-3-3, such as chaperone activity.^[17] [18] However, previously the 14-3-3(QQR) mutant was isolated from cells and then characterized as a monomer using size exclusion chromatography. This in vitro process is tedious, and the results may not represent what occur in the cellular environment. We first treated purified 14-3-3 WT and QQR mutant with various amounts of NHQM and illuminated with UV light of 365 nm (FIGS. 9A-9B). […] We then applied NHQM directly to cell lysates of E. coli cells expressing either 14-3-3 WT or its QQR mutant, without isolating the 14-3-3 proteins.
# Thioredoxin (Trx) = Thioredoxin (Trx) (Escherichia coli, UniProt P0AA25); details: 1 mM or 10 mM NHQM, UV 365 nm 15 min, E. coli cell lysate
# Thioredoxin (Trx), sequence (P0AA25 whole entry): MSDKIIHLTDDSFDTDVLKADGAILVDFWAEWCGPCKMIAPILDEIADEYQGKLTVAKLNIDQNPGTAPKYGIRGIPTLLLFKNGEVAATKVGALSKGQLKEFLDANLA
# Description: We started by testing NHQM's ability to crosslink interacting proteins in E. coli cell lysates. […] We expressed His-tagged Trx in E. coli cells, and then applied NHQM to the cell lysate followed by UV activation.
# Plasmid pBAD-Trx was transformed into BL21(DE3) E. coli cells, and the Trx protein expression was carried out following procedures described above except that the cell culture volume was decreased to 20 mL. After protein expression, the cells were harvested and resuspended in 15 mL 50 mM sodium phosphate buffer containing 200 mM NaCI, pH 7.5. The cells were broken by sonification. 15 μL cell suspension were taken and added with 0, 1, or 10 mM NHQM and incubated at RT for 15 min, followed by UV illumination at wavelength 365 nm for another 15 min. The reaction was then treated by adding 100 mM Tris-HCI, pH 7.5 and incubated at RT for 15 min. The samples were then quickly treated with SDS loading dye containing 100 mM DTT, boiled at 95° C. for 5 min, and then analyzed with Western blot using anti-His antibody.
# [6] = biological target: epidermal growth factor receptor (EGFR) (Homo sapiens, UniProt P00533); assay: Crosslinking of overexpressed EGFR on HEK293T cells (Western blot); details: HEK293T overexpressing EGFR, 4 mM NHQM, UV 365 nm 15 min
# epidermal growth factor receptor (EGFR), sequence (P00533 25-1210): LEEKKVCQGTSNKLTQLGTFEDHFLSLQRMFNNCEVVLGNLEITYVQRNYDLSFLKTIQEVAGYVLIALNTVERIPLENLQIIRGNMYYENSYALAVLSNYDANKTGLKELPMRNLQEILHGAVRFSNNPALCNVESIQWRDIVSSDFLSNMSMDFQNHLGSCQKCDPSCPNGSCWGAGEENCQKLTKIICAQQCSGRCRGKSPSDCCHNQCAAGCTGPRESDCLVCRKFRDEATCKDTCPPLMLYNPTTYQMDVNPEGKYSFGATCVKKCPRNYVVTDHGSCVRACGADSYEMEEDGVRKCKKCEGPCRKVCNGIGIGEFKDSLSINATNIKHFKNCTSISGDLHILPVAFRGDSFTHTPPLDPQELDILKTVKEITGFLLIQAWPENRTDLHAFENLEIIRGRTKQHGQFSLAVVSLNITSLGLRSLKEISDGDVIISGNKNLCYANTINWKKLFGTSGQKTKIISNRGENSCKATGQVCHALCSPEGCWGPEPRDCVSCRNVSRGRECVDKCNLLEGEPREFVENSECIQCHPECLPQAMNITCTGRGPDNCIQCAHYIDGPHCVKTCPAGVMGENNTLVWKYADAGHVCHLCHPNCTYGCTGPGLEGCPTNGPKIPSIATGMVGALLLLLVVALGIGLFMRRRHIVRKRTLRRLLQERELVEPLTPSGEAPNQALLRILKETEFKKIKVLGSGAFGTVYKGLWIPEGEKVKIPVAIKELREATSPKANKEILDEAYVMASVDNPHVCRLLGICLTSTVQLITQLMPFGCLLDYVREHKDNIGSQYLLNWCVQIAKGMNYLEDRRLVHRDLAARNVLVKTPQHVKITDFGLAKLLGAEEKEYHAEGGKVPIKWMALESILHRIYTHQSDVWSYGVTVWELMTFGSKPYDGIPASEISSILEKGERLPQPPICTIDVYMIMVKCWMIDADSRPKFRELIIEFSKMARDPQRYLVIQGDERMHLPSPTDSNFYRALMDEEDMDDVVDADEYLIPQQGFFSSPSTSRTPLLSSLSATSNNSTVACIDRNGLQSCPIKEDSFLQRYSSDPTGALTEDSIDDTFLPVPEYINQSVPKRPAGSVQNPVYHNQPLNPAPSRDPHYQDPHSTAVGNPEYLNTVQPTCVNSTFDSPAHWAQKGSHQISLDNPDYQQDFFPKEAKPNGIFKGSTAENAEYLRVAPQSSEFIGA
# Description: We subsequently tested NHQM's crosslinking ability in mammalian cells. […] Therefore, we tested using NHQM to crosslink proteins on mammalian cell surfaces.
# Plasmid pCDNA3.1-14-3-3, pCDNA3.1-GST, or pCDNA3.1-EGFR (2 μg each) was transfected into one well of 6-well plate of HEK293T cells, respectively. After transfection, the cells were cultured at 37° C. for additional 24 hr. The cells were harvested and washed with PBS, pH 7.4 for one time, followed by resuspension in 50 μL PBS, pH 7.4. The cells were either added nothing or added with 4 mM NHQM and incubated at RT for 15 min. Then the cells were illuminated with or without UV at wavelength 365 nm for another 15 min. After that, the reaction was treated by adding 100 mM Tris-HCI, pH 7.5 and incubated at RT for 15 min. The samples were then quickly treated with 2×SDS loading dye containing 100 mM DTT, boiled at 95° C. for 5 mins, and analyzed by running Western blot using an anti-His antibody.
# 14-3-3(QQR) mutant = biological target: T4, 14-3-3(QQR) mutant (Homo sapiens, UniProt P63104, A13Q/E14R/L12Q); assay: Crosslinking of monomeric 14-3-3(QQR) mutant in vitro (SDS-PAGE); assay type: biochemical; details: 0-0.4 mM NHQM, UV 365 nm 15 min
# T4 sequence (P63104 1-245 L12Q/A13Q/E14R): T2 sequence (P63104 1-245) with L12Q, A13Q, E14R
# Description: as §1
# (§2) Utilizing NHQM to differentiate 14-3-3 dimer versus monomer.
# [7] = biological target: glutathione transferase (GST) expressed in HEK 293T cells (Escherichia coli, UniProt P0A9D2); assay: GST crosslinking in mammalian cells (Western blot); assay type: cell-based; details: 4 mM NHQM, UV 365 nm 15 min
# [8] = biological target: T5, 14-3-3 expressed in HEK293T cells (Homo sapiens, UniProt P63104); assay: 14-3-3 crosslinking in mammalian cells (Western blot); details: 4 mM NHQM, UV 365 nm 15 min
# T5 sequence (P63104 1-245): T2 sequence (P63104 1-245)
# Description: We subsequently tested NHQM's crosslinking ability in mammalian cells. We incubated NHQM with live mammalian cells expressing the dimeric glutathione transferase (GST)^[9] or 14-3-3. […] Therefore, we tested using NHQM to crosslink proteins on mammalian cell surfaces. […] In addition, we further explored whether NHQM could probe endogenous mammalian proteins at physiologically relevant conditions. With this aim, we cultured MCF7 cells and treated them with or without NHQM, with or without UV, using the amine-reactive crosslinker bissulfosuccinimidyl suberate (BS^3) as a positive control.
# Plasmid pCDNA3.1-14-3-3, pCDNA3.1-GST, or pCDNA3.1-EGFR (2 μg each) was transfected into one well of 6-well plate of HEK293T cells, respectively. After transfection, the cells were cultured at 37° C. for additional 24 hr. The cells were harvested and washed with PBS, pH 7.4 for one time, followed by resuspension in 50 μL PBS, pH 7.4. […] The samples were then quickly treated with 2×SDS loading dye containing 100 mM DTT, boiled at 95° C. for 5 mins, and analyzed by running Western blot using an anti-His antibody.
# Plasmid pCDNA3.1-14-3-3 (2 μg) was transfected into one well of 6-well plate of HEK293T cells. […] The samples were then quickly treated with 2×SDS loading dye containing 100 mM DTT, boiled at 95° C. for 5 min, and analyzed with Western blot using an anti-His antibody.
# [9] = biological target: T6, 14-3-3 QQR mutant in E. coli cell lysate (Homo sapiens, UniProt P63104, A13Q/E14R/L12Q); assay: Crosslinking of 14-3-3 QQR mutant in E. coli cell lysate (Western blot); assay type: biochemical
# T6 construct: expressed in transfected cells; host or cells: E. coli, cell lysate
# T6 sequence (P63104 1-245 L12Q/A13Q/E14R): T2 sequence (P63104 1-245) with L12Q, A13Q, E14R
# Description: as §1
# [10] = biological target: endogenous EGFR in MCF7 cells (Homo sapiens, UniProt P00533); assay: Crosslinking of endogenous EGFR on mammalian cell surface (Western blot); assay type: cell-based; details: BS^3 as positive control
# endogenous EGFR in MCF7 cells, sequence (P00533 25-1210): as above
# [11] = biological target: T7, 14-3-3 protein (WT homodimer) (Homo sapiens, UniProt P63104); assay: Dimeric crosslinking of 14-3-3 WT in vitro (SDS-PAGE); assay type: biochemical
# T7 sequence (P63104 1-245): T2 sequence (P63104 1-245)
# Description: We initially designed and synthesized a heterobifunctional crosslinker NHQM containing an NHS ester and a photocaged ortho-quinone methide (o-QM) (FIG. 7A). Two fluorines were installed at the methyl group ortho to the phenolic hydroxyl group, which was photocaged by an o-nitrobenzyl group. When in proximity to proteins, the reactive NHS ester will react with exposed Lys residues, planting the photocaged o-QM next to residues on interaction partners. UV release of o-nitrobenzyl induces elimination of a fluoride ion to generate o-QM spontaneously, which will subsequently crosslink with nearby nucleophilic side chains (FIG. 7A). […] We further studied the crosslinking rate by varying the duration of UV treatment immediately after addition of NHQM.
# as §1
# NHQM mediated 14-3-3 crosslinking in vitro.
# as §2
# HoQM mediated 14-3-3 crosslinking in vitro.
# [12] = test system: SSB protein with viral M13mp18 DNA; assay: SSB protein-M13mp18 DNA crosslinking (denaturing TBE-urea gel shift); assay type: biochemical; details: 1 mM NHQM, UV 365 nm 15 min
# Description: that are reported to interact with SSB^[24] [25] The SSB-DNA complex was treated with NHQM and UV activation, and analyzed by denaturing TBE-urea gel shift assay to detect covalent crosslinking between SSB and DNA. […] We further investigated protein-DNA crosslinking by incubating a natural single stranded circular viral DNA M13mp18 with the SSB protein.^[26] As shown in FIG. 21B (also FIGS. 22A-22B), the M13mp18 control DNA run as two isoforms in the denatured TBE-Urea gel due to its large size, a major form remained in the well and a minor form migrating in the gel.
# Bovine Serum Albumin (BSA), sequence (P02769 25-607): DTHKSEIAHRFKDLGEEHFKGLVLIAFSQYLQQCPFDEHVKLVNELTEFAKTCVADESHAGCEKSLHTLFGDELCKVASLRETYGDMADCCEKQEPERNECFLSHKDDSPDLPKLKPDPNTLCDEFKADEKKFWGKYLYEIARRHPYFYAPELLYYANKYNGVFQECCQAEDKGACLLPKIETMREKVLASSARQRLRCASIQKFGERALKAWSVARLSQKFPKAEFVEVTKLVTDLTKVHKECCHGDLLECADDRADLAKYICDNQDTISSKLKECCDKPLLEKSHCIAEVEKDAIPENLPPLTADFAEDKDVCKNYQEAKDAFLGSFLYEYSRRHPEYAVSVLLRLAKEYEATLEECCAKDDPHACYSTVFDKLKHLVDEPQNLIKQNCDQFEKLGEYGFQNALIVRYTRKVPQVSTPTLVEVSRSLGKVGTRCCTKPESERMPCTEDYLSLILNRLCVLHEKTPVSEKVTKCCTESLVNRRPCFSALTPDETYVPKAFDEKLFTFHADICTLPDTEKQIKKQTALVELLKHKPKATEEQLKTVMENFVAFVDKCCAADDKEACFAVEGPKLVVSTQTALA
smiles,measurement,setting,value
"[2H]C([2H])(CC(=O)ON1C(=O)CC(S(=O)(=O)O)C1=O)C([2H])([2H])C(=O)ON1C(=O)CC(S(=O)(=O)O)C1=O (stereo not drawn) [BS2G, bis(sulfosuccinimidyl) 2,2,4,4-glutarate-d4]",Inter-linked peptides identified,[1],106
same,Inter-peptide cross-links identified by MS,"[2]; 10 μM BSA, 1 mM crosslinker, RT 1 h",18
same,Cross-linked peptides exceeding the distance limit,"[2]; limit of 20 Å Cα-Cα, BSA structure PDB 3V03",four
same,Products detected after reaction with peptide 7KR,peptide 7KR (Ac-AAAKAAR),both a mono-linked peptide as well as the cross-linked dimer
same,Cross-linked peptides identified by MS,"[3]; 10 μM GST, 0.5 mM crosslinker, RT 1 h",15
same,Cross-links incompatible with the GST structure,"[3]; out of 15 cross-links, PDB 1N2A",6
"O=C(CCCCCCC(=O)ON1C(=O)CC(S(=O)(=O)O)C1=O)ON1C(=O)CC(S(=O)(=O)O)C1=O (stereo not drawn) [BS^3, bissulfosuccinimidyl suberate, reference compound]",SSB-DNA crosslinking (upshifted band),[4],did not result in SSB-DNA crosslinking
O=C(c1ccc(OCc2ccccc2[N+](=O)[O-])c(C(F)F)c1)N1CCN(C(=O)c2ccc(OCc3ccccc3[N+](=O)[O-])c(C(F)F)c2)CC1 [HoQM],Toxicity to HEK293T cells,HEK293T cells,without apparent toxicity
O=C(ON1C(=O)CCC1=O)c1ccc(OCc2ccccc2[N+](=O)[O-])c(C(F)F)c1 [NHQM],Pairs of crosslinked peptides identified,"WT 14-3-3 protein; crosslinked 14-3-3, tandem MS",Eight
same,Residues crosslinked with Lys,"WT 14-3-3 protein; crosslinked 14-3-3, tandem MS","Arg, Asn, Gln, Glu, Lys, or Ser"
same,Cα-Cα distance of the crosslink exceeding the limit,WT 14-3-3 protein; limit ~22 Å,23.7 Å
same,SSB-DNA crosslinking (upshifted band),[4],upshifted band was only observed for the SSB-19(3×) or SSB-ATC(4×) complex treated with both NHQM and UV light
same,Dimeric crosslinking of 14-3-3 WT in cell lysate,[5],crosslinked as dimer
same,Crosslinking of endogenous proteins to Trx,Thioredoxin (Trx),many endogenous proteins were crosslinked to Trx
same,EGFR dimer on Western blot,[6],EGFR dimer was detected
same,Crosslinking of 14-3-3 QQR,14-3-3(QQR) mutant,remained a monomer even at NHQM concentration up to 0.4 mM
same,Efficiency of dimeric crosslinking of GST in live mammalian cells,[7],< 10%
same,Efficiency of dimeric crosslinking of 14-3-3 in live mammalian cells,[8],< 10%
same,Dimeric crosslinking of 14-3-3 QQR mutant in cell lysate,[9],not the QQR mutant
same,Crosslinking efficiency of endogenous EGFR,[10],comparable to the commercial crosslinker BS^3
same,Crosslinked dimer of 14-3-3 WT versus crosslinker amount,"[11]; 0-0.4 mM NHQM, UV 365 nm 15 min",increased with higher NHQM concentration
same,UV exposure at which crosslinking of 14-3-3 could be observed,"[11]; 1 mM NHQM, UV 365 nm, SDS-PAGE",1 min
same,Crosslinked dimer of 14-3-3,"[11]; 1 mM crosslinker, with or without UV 365 nm, SDS-PAGE",detected only with addition of NHQM crosslinker and UV illumination
same,SSB-M13mp18 crosslinking (upshift of minor form),[12],only in the presence of both NHQM treatment and UV activation was the minor form of M13mp18 upshifted into the well
